Experimental data published in patent US10562891B2, “Quinazolinones as PARP14 inhibitors” (Ribon Therapeutics Inc., priority 2017, dated 2020).
pIC50: −log10 of the molar value.

Tests used:
[1] = target: catalytic domain of human PARP14 (Homo sapiens (Human), UniProt Q460N5); assay: Enzymatic assay for inhibition of PARP14 (DELFIA, auto-modification with biotin-NAD); type: biochemical; conditions: auto-modification of PARP14 by biotin-NAD, 50 nM PARP14, 3 μM biotin-NAD
Method in brief: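 His-TEV-tagged PARP14 catalytic domain (50 nM) preincubated with compound 30 min at 25 °C, then auto-modified with 3 μM biotin-NAD for 3 h at 25 °C in HEPES pH 8 buffer with DTT. IC50 from 4-parameter fit, rucaparib and DMSO as controls.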

4T1 cells = assay: Inhibition of tumor growth in the 4T1 murine syngeneic model; type: in vivo, female BALB/c mice; conditions: 4T1 orthotopic in mammary fat pad, 500 mg/kg PO BID*21 days, treatment group versus vehicle group, study terminated D20
From the text: FIGS. 3A and 4A illustrate that a PARP14 inhibitor (Example 235) reduces tumor growth in the murine syngeneic models (A) 4T1 and (B) LL/2. For the 4T1 study (FIGS. 3A and 3B), female BALB/c mice were inoculated orthotopically in the mammary fat pad with 1×10^5 4T1 cells (ATCC, CRL-2539™) for tumor development. Seven days after tumor inoculation, 16 mice with tumor size ranging from 41-78 mm^3 (average tumor size 56 mm^3) were selected and assigned into 2 groups using stratified randomization with 8 mice in each group based upon their tumor volumes. The treatments were started from the next day post randomization (defined as randomization day DO) and were treated with vehicle (0.5% methylcellulose +0.2% Tween 80), or the compound of Example 235 (500 mg/kg PO BID*21 days). The tumor sizes were measured three times per week during the treatment. The entire study was terminated on D20.
(§1) Statistical significance, calculated using 2way ANOVA multiple comparisons in which each treatment group was compared to vehicle control, is indicated by an asterisk. Statistics were performed on groups with less than 20% animal loss (D20 for 4T1, D17 for LL/2). Survival benefit was determined for the LL/2 study (FIG. 4B). Individual mice were euthanized once they reached the termination endpoint (TV>2000 mm3). […]

LL/2 cells = assay: Inhibition of tumor growth and survival in the LL/2 murine syngeneic model; type: in vivo, female C57BL/6 mice; conditions: LL/2 subcutaneous right flank, 500 mg/kg PO BID*21 days, treatment group versus vehicle group, study terminated D21
From the text: For the LL/2 study (FIGS. 4A-4C), female C57BL/6 mice were inoculated subcutaneously in the right flank with 5×10^5 LL/2 cells (ATCC, CRL-1642™) for tumor development. Five days after tumor inoculation, 16 mice with tumor size ranging from 37-72 mm^3 (average tumor size 51 mm^3) were selected and assigned into 2 groups using stratified randomization with 8 mice in each group based upon their tumor volumes. The treatments were started from the next day post randomization (defined as randomization day DO) and were treated with vehicle (0.5% methylcellulose +0.2% Tween 80), or the compound of Example 235 (500 mg/kg PO BID*21 days). The tumor sizes were measured three times per week during the treatment. The entire study was terminated on D21.
as §1, with “mm3). The time from treatment initiation to termination was deemed as its survival time and plotted in a Kaplan-Meier survival curve format. Mice remaining at study end date of 21 days were euthanized at day 21 after treatment initiation.” for “mm3).”

Sequence of catalytic domain of human PARP14 (Q460N5 1611-1801): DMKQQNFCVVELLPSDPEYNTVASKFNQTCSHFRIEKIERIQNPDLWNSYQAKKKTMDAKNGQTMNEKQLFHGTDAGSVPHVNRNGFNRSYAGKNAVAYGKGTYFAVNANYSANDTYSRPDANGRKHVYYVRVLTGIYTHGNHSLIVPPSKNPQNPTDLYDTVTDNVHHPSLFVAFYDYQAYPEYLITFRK

pIC50 [1]	SMILES	also measured
5.00 to 6.00	O=c1[nH]c(CSC2CCOCC2)nc2cc(CCC3CCCCC3)cc(F)c12 [Example 368]	
> 6.00	CC(=O)N1CCC(CNc2cc3nc(CSC4CCOCC4)[nH]c(=O)c3c(F)c2F)CC1 [Example 369]	
> 6.00	O=c1[nH]c(CSC2CCOCC2)nc2cc(SCC3CCOCC3)cc(F)c12 [Example 370]	
> 6.00	C[C@]1(O)CC[C@H](SCc2nc3cc(OCC4CCOC4)cc(F)c3c(=O)[nH]2)CC1 (stereo partly drawn) [Example 373]	
> 6.00	CO[C@H]1C[C@@H](Nc2cc3nc(CS[C@H]4CC[C@](C)(O)CC4)[nH]c(=O)c3c(F)c2F)C1 [Example 374]	
> 6.00	O=c1[nH]c(CS[C@H]2CC[C@H](OC(F)(F)F)CC2)nc2cc(OCC3CCOCC3)cc(F)c12 [Example 375]	
> 6.00	O=c1[nH]c(CSC2CCOCC2)nc2cc(OCC3CCOC3)cc(Br)c12 (stereo not drawn) [Example 376]	
> 6.00	CO[C@H]1CC[C@H](Nc2cc3nc(CS[C@H]4CC[C@H](O)CC4)[nH]c(=O)c3c(F)c2F)CC1 [Example 377]	
> 6.00	CCC(=O)N[C@H]1CC[C@H](SCc2nc3cc(OCC4CC4)cc(F)c3c(=O)[nH]2)CC1 [Example 378]	
> 6.00	CO[C@H]1CC[C@@H](Nc2cc3nc(CS[C@H]4CC[C@H](O)CC4)[nH]c(=O)c3c(F)c2F)CC1 [Example 379]	
> 6.00	CC(=O)NC1(C)CCC(SCc2nc3cc(OCC4CC4)cc(F)c3c(=O)[nH]2)CC1 (stereo not drawn) [Example 380]	
> 6.00	O=c1[nH]c(CS[C@H]2CC[C@H](O)CC2)nc2cc(N[C@@H]3CCCOC3)c(F)c(F)c12 [Example 381]	
> 6.00	O=c1[nH]c(CS[C@H]2C[C@H](O)C2)nc2cc(OCC3CCOCC3)cc(F)c12 [Example 382]	
> 6.00	N#Cc1cc(OCC2CCOC2)cc2nc(CSC3CCOCC3)[nH]c(=O)c12 (stereo not drawn) [Example 383]	
> 6.00	CC(C)(C)CNc1cc2nc(CSC3CCOCC3)[nH]c(=O)c2c(F)c1F [Example 384]	
> 6.00	C[C@]1(O)C[C@H](COc2cc(F)c3c(=O)[nH]c(CSC4CCOCC4)nc3c2)C1 [Example 385]	
> 6.00	C[C@]1(O)C[C@@H](COc2cc(F)c3c(=O)[nH]c(CSC4CCOCC4)nc3c2)C1 [Example 386]	
> 6.00	CC(=O)N[C@H]1C[C@@H](SCc2nc3cc(OCC4CCOCC4)cc(F)c3c(=O)[nH]2)C1 [Example 387]	
> 6.00	CO[C@H]1C[C@@H](Nc2cc3nc(CS[C@H]4CC[C@H](NC(C)=O)CC4)[nH]c(=O)c3c(F)c2F)C1 [Example 389]	
> 6.00	O=C(C1CC1)N1CCC(COc2cc(F)c3c(=O)[nH]c(CSC4CCOCC4)nc3c2)CC1 [Example 390]	
> 6.00	CC(=O)N[C@H]1CC[C@H](SCc2nc3cc(OCC4CCOC4)cc(F)c3c(=O)[nH]2)CC1 (stereo partly drawn) [Example 391]	
> 6.00	CC(=O)N[C@H]1CC[C@H](SCc2nc3cc(NC4CCC4)c(F)c(F)c3c(=O)[nH]2)CC1 [Example 392]	
> 6.00	CC(=O)N[C@H]1C[C@H](SCc2nc3cc(OCC4CCOCC4)cc(F)c3c(=O)[nH]2)C1 [Example 393]	
> 6.00	CC(Oc1cc(F)c2c(=O)[nH]c(CSC3CCOCC3)nc2c1)C1CCCC1 (stereo not drawn) [Example 394]	
> 6.00	O=C(N[C@H]1CC[C@H](SCc2nc3cc(OCC4CC4)cc(F)c3c(=O)[nH]2)CC1)C1CC1 [Example 395]	
> 6.00	CC(=O)N1CCC(COc2cc(F)c3c(=O)[nH]c(CS[C@H]4CC[C@H](O)CC4)nc3c2)CC1 [Example 396]	
> 6.00	CC(C)C(=O)N1CCC(COc2cc(F)c3c(=O)[nH]c(CSC4CCOCC4)nc3c2)CC1 [Example 397]	

pIC50 [1]	SMILES	also measured
> 6.00	CCC(=O)N1CCC(COc2cc(F)c3c(=O)[nH]c(CSC4CCOCC4)nc3c2)CC1 [Example 398]	
> 6.00	O=c1[nH]c(CSC2CCOCC2)nc2cc(OCC3CCNCC3)cc(F)c12 [Example 399]	
< 5.00	CC(Nc1cc2nc(CSC3CCOCC3)[nH]c(=O)c2c(F)c1F)C1CCOCC1 (stereo not drawn) [Example 400]	
> 6.00	CC(=O)N1CCCC(COc2cc(F)c3c(=O)[nH]c(CSC4CCOCC4)nc3c2)C1 (stereo not drawn) [Example 401]	
> 6.00	O=c1[nH]c(CSC2CCOCC2)nc2cc(N[C@H]3C[C@@H](OC(F)(F)F)C3)c(F)c(F)c12 [Example 402]	
< 5.00	Nc1cc2nc(CSC3CCOCC3)[nH]c(=O)c2c(F)c1F [Example 403]	
> 6.00	CN(C)[C@H]1CC[C@H](SCc2nc3cc(OCC4CC4)cc(F)c3c(=O)[nH]2)CC1 [Example 404]	
> 6.00	O=c1[nH]c(CS[C@H]2C[C@@H](O)C2)nc2cc(OCC3CCOCC3)cc(F)c12 [Example 405]	
> 6.00	O=c1[nH]c(CSC2CCOCC2)nc2cc(OCC3CCOCC3)c(F)c(F)c12 [Example 406]	
5.00 to 6.00	COC(C)(C)CNc1cc2nc(CSC3CCOCC3)[nH]c(=O)c2c(F)c1F [Example 407]	
> 6.00	CC(=O)N1CCC(COc2cc(F)c3c(=O)[nH]c(CS[C@H]4CC[C@](C)(O)CC4)nc3c2)CC1 [Example 409]	
> 6.00	COC(=O)N1CCC(COc2cc(F)c3c(=O)[nH]c(CSC4CCOCC4)nc3c2)CC1 [Example 410]	
> 6.00	C[C@]1(O)CC[C@@H](SCc2nc3cc(OCC4CCOCC4)cc(F)c3c(=O)[nH]2)CC1 [Example 411]	
> 6.00	CN1CCOC(COc2cc(F)c3c(=O)[nH]c(CSC4CCOCC4)nc3c2)C1 (stereo not drawn) [Example 414]	
> 6.00	CN1CCC(COc2cc(F)c3c(=O)[nH]c(CSC4CCOCC4)nc3c2)CC1 [Example 415]	
> 6.00	CC(C)(C)COc1cc(F)c2c(=O)[nH]c(CSC3CCOCC3)nc2c1 [Example 416]	
> 6.00	CC(=O)N1CCC(COc2cc(F)c3c(=O)[nH]c(CS[C@H]4CC[C@@](C)(O)CC4)nc3c2)CC1 [Example 417]	
> 6.00	O=c1[nH]c(CS[C@H]2CC[C@@H](OC(F)(F)F)CC2)nc2cc(OCC3CCOCC3)cc(F)c12 [Example 418]	
> 6.00	CC(=O)N1CCC(CNc2cc3nc(CS[C@H]4CC[C@H](O)CC4)[nH]c(=O)c3c(F)c2F)CC1 [Example 419]	
> 6.00	CNc1cc2nc(CSC3CCOCC3)[nH]c(=O)c2c(F)c1F [Example 420]	
> 6.00	CC(C)(COc1cc(F)c2c(=O)[nH]c(CSC3CCOCC3)nc2c1)C(F)(F)F [Example 421]	
> 6.00	CC(=O)N1CCC(COc2cc(F)c3c(=O)[nH]c(CS[C@H]4CC[C@@H](O)CC4)nc3c2)CC1 [Example 422]	
> 6.00	CC(=O)N1CCC(COc2cc(Cl)c3c(=O)[nH]c(CSC4CCOCC4)nc3c2)CC1 [Example 423]	
> 6.00	COCC(=O)N1CCC(COc2cc(F)c3c(=O)[nH]c(CSC4CCOCC4)nc3c2)CC1 [Example 424]	
> 6.00	CN1CC[C@H](CNc2cc3nc(CSC4CCOCC4)[nH]c(=O)c3c(F)c2F)[C@@H](F)C1 [Example 425]	
> 6.00	CC(=O)N[C@H]1CC[C@H](SCc2nc3cc(OCC4CCOCC4)cc(F)c3c(=O)[nH]2)CC1 [Example 426]	
> 6.00	CN1CCC(COc2cc(F)c3c(=O)[nH]c(CSC4CCOCC4)nc3c2)C(F)(F)C1 (stereo not drawn) [Example 427]	

SMILES	pIC50 [1]	also measured
O=c1[nH]c(CS[C@H]2CC[C@H](O)CC2)nc2cc(OCC3CC3)cc(F)c12 [Example 235, 7-(Cyclopropylmethoxy)-5-fluoro-2-(((trans-4-hydroxycyclohexyl)thio)methyl)quinazolin-4(3H)-one]	> 6.00	Tumor growth inhibition (4T1 cells): 31%; Tumor growth inhibition (LL/2 cells): 63%
